ChEMBL document CHEMBL3046001, “4-Thiazolidinone and 1-thia-3,4,9-triaza fluorene conjugates: synthesis, characterization and antimicrobial screening” (2013)
In brackets after ≈: the same amount, converted by molar mass. Activity calls are given as the source filed them. No cut-off for these calls is given here.

How the values were obtained:
Micrococcus luteus [1] = test: Antibacterial activity against Micrococcus luteus MTCC 1538 assessed as growth inhibition after 24 hr by tube dilution method; format: functional; settings: MTCC 1538, 24 h
Penicillium chrysogenum [2] = test: Antifungal activity against Penicillium chrysogenum MTCC 161 assessed as growth inhibition at 500 ug/mL after 48 hr by agar diffusion method; format: functional; settings: MTCC 161, 48 h, read-out: DIZ
Pseudomonas fluorescens [3] = test: Antibacterial activity against Pseudomonas fluorescens MTCC 2421 assessed as growth inhibition at 100 ug/mL after 48 hr by agar diffusion method; format: functional
Pseudomonas fluorescens [4] = test: Antibacterial activity against Pseudomonas fluorescens MTCC 2421 assessed as growth inhibition at 250 ug/mL after 48 hr by agar diffusion method; format: functional; settings: MTCC 2421, 48 h, read-out: DIZ
Aspergillus niger [5] = test: Antifungal activity against Aspergillus niger MTCC 2546 assessed as growth inhibition at 1250 ug/mL after 48 hr by agar diffusion method; format: functional; settings: MTCC 2546, 48 h, read-out: DIZ
Micrococcus luteus [6] = test: Antibacterial activity against Micrococcus luteus MTCC 1538 assessed as growth inhibition at 100 ug/mL after 48 hr by agar diffusion method; format: functional
Staphylococcus aureus [7] = test: Antibacterial activity against Staphylococcus aureus MTCC 1430 assessed as growth inhibition at 500 ug/mL after 48 hr by agar diffusion method; format: functional; settings: MTCC 1430, 48 h, read-out: DIZ
Bacillus subtilis [8] = test: Antibacterial activity against Bacillus subtilis MTCC 441 assessed as growth inhibition at 100 ug/mL after 48 hr by agar diffusion method; format: functional; settings: MTCC 441, 48 h, read-out: DIZ
Bacillus subtilis [9] = test: Antibacterial activity against Bacillus subtilis MTCC 441 assessed as growth inhibition at 750 ug/mL after 48 hr by agar diffusion method; format: functional; settings: MTCC 441, 48 h, read-out: DIZ
Penicillium chrysogenum [10] = test: Antifungal activity against Penicillium chrysogenum MTCC 161 assessed as growth inhibition at 1250 ug/mL after 48 hr by agar diffusion method; format: functional; settings: MTCC 161, 48 h, read-out: DIZ
Penicillium chrysogenum [11] = test: Antifungal activity against Penicillium chrysogenum MTCC 161 assessed as growth inhibition after 24 hr by tube dilution method; format: functional; settings: MTCC 161, 24 h
Escherichia coli [12] = test: Antibacterial activity against Escherichia coli MTCC 1573 assessed as growth inhibition at 250 ug/mL after 48 hr by agar diffusion method; format: functional; settings: MTCC 1573, 48 h, read-out: DIZ
Escherichia coli [13] = test: Antibacterial activity against Escherichia coli MTCC 1573 assessed as growth inhibition at 1250 ug/mL after 48 hr by agar diffusion method; format: functional; settings: MTCC 1573, 48 h, read-out: DIZ
Bacillus pumilus [14] = test: Antibacterial activity against Bacillus pumilus MTCC 1456 assessed as growth inhibition after 24 hr by tube dilution method; format: functional; settings: MTCC 1456, 24 h
Escherichia coli [15] = test: Antibacterial activity against Escherichia coli MTCC 1573 assessed as growth inhibition at 500 ug/mL after 48 hr by agar diffusion method; format: functional; settings: MTCC 1573, 48 h, read-out: DIZ
Pseudomonas fluorescens [16] = test: Antibacterial activity against Pseudomonas fluorescens MTCC 2421 assessed as growth inhibition at 1000 ug/mL after 48 hr by agar diffusion method; format: functional; settings: MTCC 2421, 48 h, read-out: DIZ
Staphylococcus aureus [17] = test: Antibacterial activity against Staphylococcus aureus MTCC 1430 assessed as growth inhibition at 1000 ug/mL after 48 hr by agar diffusion method; format: functional; settings: MTCC 1430, 48 h, read-out: DIZ
Pseudomonas aeruginosa [18] = test: Antibacterial activity against Pseudomonas aeruginosa MTCC 424 assessed as growth inhibition at 750 ug/mL after 48 hr by agar diffusion method; format: functional; settings: MTCC 424, 48 h, read-out: DIZ
Pseudomonas fluorescens [19] = test: Antibacterial activity against Pseudomonas fluorescens MTCC 2421 assessed as growth inhibition at 1250 ug/mL after 48 hr by agar diffusion method; format: functional; settings: MTCC 2421, 48 h, read-out: DIZ
Pseudomonas aeruginosa [20] = test: Antibacterial activity against Pseudomonas aeruginosa MTCC 424 assessed as growth inhibition at 1250 ug/mL after 48 hr by agar diffusion method; format: functional; settings: MTCC 424, 48 h, read-out: DIZ
Pseudomonas fluorescens [21] = test: Antibacterial activity against Pseudomonas fluorescens MTCC 2421 assessed as growth inhibition after 24 hr by tube dilution method; format: functional; settings: MTCC 2421, 24 h
Bacillus subtilis [22] = test: Antibacterial activity against Bacillus subtilis MTCC 441 assessed as growth inhibition at 500 ug/mL after 48 hr by agar diffusion method; format: functional; settings: MTCC 441, 48 h, read-out: DIZ
Staphylococcus aureus [23] = test: Antibacterial activity against Staphylococcus aureus MTCC 1430 assessed as growth inhibition at 750 ug/mL after 48 hr by agar diffusion method; format: functional; settings: MTCC 1430, 48 h, read-out: DIZ
Bacillus pumilus [24] = test: Antibacterial activity against Bacillus pumilus MTCC 1456 assessed as growth inhibition at 750 ug/mL after 48 hr by agar diffusion method; format: functional; settings: MTCC 1456, 48 h, read-out: DIZ
Staphylococcus aureus [25] = test: Antibacterial activity against Staphylococcus aureus MTCC 1430 assessed as growth inhibition at 250 ug/mL after 48 hr by agar diffusion method; format: functional; settings: MTCC 1430, 48 h, read-out: DIZ
Escherichia coli [26] = test: Antibacterial activity against Escherichia coli MTCC 1573 assessed as growth inhibition at 750 ug/mL after 48 hr by agar diffusion method; format: functional; settings: MTCC 1573, 48 h, read-out: DIZ
Pseudomonas aeruginosa [27] = test: Antibacterial activity against Pseudomonas aeruginosa MTCC 424 assessed as growth inhibition at 1000 ug/mL after 48 hr by agar diffusion method; format: functional; settings: MTCC 424, 48 h, read-out: DIZ
Micrococcus luteus [28] = test: Antibacterial activity against Micrococcus luteus MTCC 1538 assessed as growth inhibition at 750 ug/mL after 48 hr by agar diffusion method; format: functional; settings: MTCC 1538, 48 h, read-out: DIZ
Bacillus pumilus [29] = test: Antibacterial activity against Bacillus pumilus MTCC 1456 assessed as growth inhibition at 1000 ug/mL after 48 hr by agar diffusion method; format: functional; settings: MTCC 1456, 48 h, read-out: DIZ
Escherichia coli [30] = test: Antibacterial activity against Escherichia coli MTCC 1573 assessed as growth inhibition after 24 hr by tube dilution method; format: functional; settings: MTCC 1573, 24 h
Staphylococcus aureus [31] = test: Antibacterial activity against Staphylococcus aureus MTCC 1430 assessed as growth inhibition after 24 hr by tube dilution method; format: functional; settings: MTCC 1430, 24 h
Aspergillus niger [32] = test: Antifungal activity against Aspergillus niger MTCC 2546 assessed as growth inhibition at 750 ug/mL after 48 hr by agar diffusion method; format: functional; settings: MTCC 2546, 48 h, read-out: DIZ
Bacillus pumilus [33] = test: Antibacterial activity against Bacillus pumilus MTCC 1456 assessed as growth inhibition at 250 ug/mL after 48 hr by agar diffusion method; format: functional; settings: MTCC 1456, 48 h, read-out: DIZ
Penicillium chrysogenum [34] = test: Antifungal activity against Penicillium chrysogenum MTCC 161 assessed as growth inhibition at 1000 ug/mL after 48 hr by agar diffusion method; format: functional; settings: MTCC 161, 48 h, read-out: DIZ
Pseudomonas fluorescens [35] = test: Antibacterial activity against Pseudomonas fluorescens MTCC 2421 assessed as growth inhibition at 500 ug/mL after 48 hr by agar diffusion method; format: functional; settings: MTCC 2421, 48 h, read-out: DIZ
Bacillus subtilis [36] = test: Antibacterial activity against Bacillus subtilis MTCC 441 assessed as growth inhibition at 250 ug/mL after 48 hr by agar diffusion method; format: functional; settings: MTCC 441, 48 h, read-out: DIZ
Aspergillus niger [37] = test: Antifungal activity against Aspergillus niger MTCC 2546 assessed as growth inhibition at 100 ug/mL after 48 hr by agar diffusion method; format: functional, organism-based
Pseudomonas aeruginosa [38] = test: Antibacterial activity against Pseudomonas aeruginosa MTCC 424 assessed as growth inhibition at 250 ug/mL after 48 hr by agar diffusion method; format: functional; settings: MTCC 424, 48 h, read-out: DIZ
Pseudomonas aeruginosa [39] = test: Antibacterial activity against Pseudomonas aeruginosa MTCC 424 assessed as growth inhibition at 500 ug/mL after 48 hr by agar diffusion method; format: functional; settings: MTCC 424, 48 h, read-out: DIZ

| Structure (SMILES) | MIC (Micrococcus luteus [1]) [µg/mL] | zone of inhibition at 500 µg/mL (Penicillium chrysogenum [2]) [mm] | zone of inhibition at 250 µg/mL (Pseudomonas fluorescens [4]) [mm] | zone of inhibition at 1250 µg/mL (Aspergillus niger [5]) [mm] | growth inhibition (GI) (Micrococcus luteus [6]) | zone of inhibition at 500 µg/mL (Staphylococcus aureus [7]) [mm] | zone of inhibition at 100 µg/mL (Bacillus subtilis [8]) [mm] | zone of inhibition at 750 µg/mL (Bacillus subtilis [9]) [mm] | zone of inhibition at 1250 µg/mL (Penicillium chrysogenum [10]) [mm] | MIC (Penicillium chrysogenum [11]) [µg/mL] | zone of inhibition at 250 µg/mL (Escherichia coli [12]) [mm] | zone of inhibition at 1250 µg/mL (Escherichia coli [13]) [mm] | MIC (Bacillus pumilus [14]) [µg/mL] | zone of inhibition at 500 µg/mL (Escherichia coli [15]) [mm] | zone of inhibition at 1000 µg/mL (Pseudomonas fluorescens [16]) [mm] | zone of inhibition at 1000 µg/mL (Staphylococcus aureus [17]) [mm] | zone of inhibition at 750 µg/mL (Pseudomonas aeruginosa [18]) [mm] | zone of inhibition at 1250 µg/mL (Pseudomonas fluorescens [19]) [mm] | zone of inhibition at 1250 µg/mL (Pseudomonas aeruginosa [20]) [mm] | MIC (Pseudomonas fluorescens [21]) [µg/mL] | other results |
| --- | --- | --- | --- | --- | --- | --- | --- | --- | --- | --- | --- | --- | --- | --- | --- | --- | --- | --- | --- | --- | --- |
| O=C1CSC(c2cccc3ccccc23)N1c1nnc2c3ccccc3nc-2s1 (stereo not drawn) | 250 (≈ 603 µM) | 9 | 10 | 19 | inactive | 10 | 8 | 15 | 15 | 200 (≈ 482 µM) | 10 | 18 | 20 (≈ 48.2 µM) | 12 | 19 | 14 | 15 | 22 | 20 | 40 (≈ 96.5 µM) | zone of inhibition at 100 µg/mL (Pseudomonas fluorescens [3]; MTCC 2421, 48 h, read-out: DIZ): 7 mm; zone of inhibition at 500 µg/mL (Bacillus subtilis [22]): 13 mm; zone of inhibition at 750 µg/mL (Staphylococcus aureus [23]): 12 mm; zone of inhibition at 750 µg/mL (Bacillus pumilus [24]): 15 mm; zone of inhibition at 250 µg/mL (Staphylococcus aureus [25]): 8 mm; zone of inhibition at 750 µg/mL (Escherichia coli [26]): 13 mm; zone of inhibition at 1000 µg/mL (Pseudomonas aeruginosa [27]): 17 mm; zone of inhibition at 750 µg/mL (Micrococcus luteus [28]): 11 mm; zone of inhibition at 1000 µg/mL (Bacillus pumilus [29]): 20 mm; MIC (Escherichia coli [30]): 50 µg/mL (≈ 121 µM); MIC (Staphylococcus aureus [31]): 200 µg/mL (≈ 482 µM); zone of inhibition at 750 µg/mL (Aspergillus niger [32]): 10 mm; zone of inhibition at 250 µg/mL (Bacillus pumilus [33]): 8 mm; zone of inhibition at 1000 µg/mL (Penicillium chrysogenum [34]): 12 mm; zone of inhibition at 500 µg/mL (Pseudomonas fluorescens [35]): 14 mm; zone of inhibition at 250 µg/mL (Bacillus subtilis [36]): 10 mm; growth inhibition (GI) (Aspergillus niger [37]): inactive; zone of inhibition at 250 µg/mL (Pseudomonas aeruginosa [38]): 10 mm; zone of inhibition at 500 µg/mL (Pseudomonas aeruginosa [39]): 13 mm |
| CC1SCC(=O)N1c1nnc2c3cc(Cl)ccc3nc-2s1 (stereo not drawn) | 150 (≈ 445 µM) | 12 | 7 | 17 | inactive | 10 | 8 | 17 | 20 | 250 (≈ 742 µM) | 11 | 21 | 40 (≈ 119 µM) | 14 | 15 | 15 | 17 | 19 | 20 | 150 (≈ 445 µM) | growth inhibition (GI) (Pseudomonas fluorescens [3]): inactive; zone of inhibition at 500 µg/mL (Bacillus subtilis [22]): 15 mm; zone of inhibition at 750 µg/mL (Staphylococcus aureus [23]): 13 mm; zone of inhibition at 750 µg/mL (Bacillus pumilus [24]): 13 mm; zone of inhibition at 250 µg/mL (Staphylococcus aureus [25]): 8 mm; zone of inhibition at 750 µg/mL (Escherichia coli [26]): 17 mm; zone of inhibition at 1000 µg/mL (Pseudomonas aeruginosa [27]): 18 mm; zone of inhibition at 750 µg/mL (Micrococcus luteus [28]): 14 mm; zone of inhibition at 1000 µg/mL (Bacillus pumilus [29]): 15 mm; MIC (Escherichia coli [30]): 30 µg/mL (≈ 89.1 µM); MIC (Staphylococcus aureus [31]): 150 µg/mL (≈ 445 µM); zone of inhibition at 750 µg/mL (Aspergillus niger [32]): 13 mm; zone of inhibition at 250 µg/mL (Bacillus pumilus [33]): 10 mm; zone of inhibition at 1000 µg/mL (Penicillium chrysogenum [34]): 18 mm; zone of inhibition at 500 µg/mL (Pseudomonas fluorescens [35]): 8 mm; zone of inhibition at 250 µg/mL (Bacillus subtilis [36]): 10 mm; growth inhibition (GI) (Aspergillus niger [37]): inactive; zone of inhibition at 250 µg/mL (Pseudomonas aeruginosa [38]): 9 mm; zone of inhibition at 500 µg/mL (Pseudomonas aeruginosa [39]): 14 mm |
